Molecules are shown by their SMILES. The source made the active and inactive calls. The rule behind the calls is not given here.

For this assay, the target named is Influenza A virus M2 proton channel (A/TW/4845/1999 H1N1). The assay can be described thus: NMR binding screen, influenza A virus M2 proton channel, Kd (AID 1549). Conditions: M2 protein.
A word on the Kd: it is the concentration at which binding is half-saturated. Take `C=CCCCCCCCCCCCC(O)CC(O)COC(C)=O` (stereo not drawn) (tested in a mixture with another compound): the Kd is > 4 mM (inactive).

In the case of `C(=Nn1cnnc1)c1ccccc1`, the Kd was > 4 mM (inactive). Regarding `CC[C@H]1CN2CCC1C[C@@H]2[C@@H](O)c1ccnc2ccc(OC)cc12` (stereo partly drawn), the Kd was > 4 mM (inactive).

With `COc1cc2c(cc1O)CCNC2C` (stereo not drawn), the Kd is > 4 mM (inactive). The result for `O=S(=O)(O)c1cc[n+]([O-])cc1` reads > 4 mM (inactive).

For the molecule `CN1CCc2c(sc(N)c2C#N)C1`, the Kd is > 4 mM (inactive). For the molecule `O=C(O)c1ccnn1-c1ccccc1`, the Kd was > 4 mM (inactive). Turning to `CCOCC(=O)N1CCc2ccccc21`, the Kd is > 4 mM (inactive).

Turning to `NCCC(=O)N[C@@H](Cc1cnc[nH]1)C(=O)O`, the Kd is > 4 mM (inactive).

Regarding `Fc1ccc(N2CCNCC2)cc1`, the Kd was > 4 mM (inactive). The same measure for `Cc1nnc(SCc2ccccc2)[nH]c1=O`: > 4 mM (inactive). Consider `O=C(Nc1ccon1)c1cccc(C(F)(F)F)c1`, for which the Kd was > 4 mM (inactive). The result for `OCC1CNc2ccccc2O1` (stereo not drawn) reads > 4 mM (inactive).

`O=C(O)CSc1nc2ccccc2c(=O)[nH]1`: the Kd is > 4 mM (inactive). On to `COCC(=O)N1CCCc2ccccc21`, for which the Kd was > 4 mM (inactive). The result for `NC(=O)NC1NC(=O)NC1=O` (stereo not drawn) reads > 4 mM (inactive). Consider `Nc1ccc(Cc2ccncc2)cc1`, for which the Kd is > 4 mM (inactive). As for `OCc1ccc2c(c1)CCO2`, the Kd is > 4 mM (inactive).

Turning to `CC(=O)c1cccc(NS(=O)(=O)N2CCCCC2)c1`, the Kd is > 4 mM (inactive). With `CCC(C)C(NC)C(=O)O` (stereo not drawn), the Kd was > 4 mM (inactive). Turning to `CCc1nnsc1C(=O)Nc1nccs1`, the Kd is > 4 mM (inactive). As for `c1ccc(C[N+]23CCN(CC2)c2ccccc23)cc1`, the Kd is > 4 mM (inactive). As for `CC(=O)c1cccc(NC(=O)Nc2c(C)nn(C)c2C)c1`, the Kd is > 4 mM (inactive). For `COc1ccc2c(c1)OCC(Cc1ccc(OC)c(OC)c1)C2=O` (stereo not drawn), the Kd is > 4 mM (inactive). The result for `O=c1c2ccccc2nc(-c2ccco2)n1-c1nccs1` reads > 4 mM (inactive); that for `O=C(c1ccccc1-c1ccccc1)N1CCOCC1`, > 4 mM (inactive); that for `COc1cc(OC)c2c(=O)c(O)c(-c3ccc(OC)c(OC)c3)oc2c1`, > 4 mM (inactive). Turning to `O=C1N=C(N2CCOCC2)S/C1=C\c1cccnc1`, the Kd is > 4 mM (inactive).

Turning to `Cn1c(=O)cc(O)c2ccccc21`, the Kd was > 4 mM (inactive). For `CC(C)(C)c1cc(N)n[nH]1`, the Kd is > 4 mM (inactive). `Cc1oc(-c2ccccc2)nc1CC(=O)O`: the Kd was > 4 mM (inactive). The result for `CN1C2CC[C@@H]1CC(OC(=O)[C@H](CO)c1ccccc1)C2` (stereo partly drawn) reads > 4 mM (inactive); that for `COc1ccc(/C=C2/N=C(N)SC2=O)cc1`, > 4 mM (inactive). With `Cc1c(N=CN2CCOCC2)c(=O)n(C)c(=O)n1C`, the Kd was > 4 mM (inactive). The result for `NCc1cccc2nsnc12` reads > 4 mM (inactive); that for `COc1ccc(NC(=O)c2ccc[n+]([O-])c2)cc1`, > 4 mM (inactive). On to `O=c1cc(-c2ccc(O)cc2)oc2cc(O)cc(O)c12`, for which the Kd was > 4 mM (inactive).

With `c1ccc(C[N+]23CCN(CC2)CC3)cc1`, the Kd is > 4 mM (inactive). For the molecule `O=C1CSC(=S)N1Cc1cccnc1`, the Kd is > 4 mM (inactive). The same measure for `CP(C)(=O)CCC(=O)O`: > 4 mM (inactive); for `C[C@H](CCC(=O)O)[C@H]1CCC2C3C(CC[C@@]21C)[C@@]1(C)CC[C@@H](O)C[C@H]1C[C@H]3O` (stereo partly drawn): > 4 mM (inactive). The same measure for `Cc1ncoc1C(=O)Nc1ncc([N+](=O)[O-])s1`: > 4 mM (inactive); for `NCc1ccc(-c2cccs2)cc1`: > 4 mM (inactive); for `Cc1cccc(N2C(=O)CCC2=O)n1`: > 4 mM (inactive).

For `S=C(c1cccnc1)N1CCOCC1`, the Kd is > 4 mM (inactive). `O=c1[nH]cc(COCc2ccccc2)c(=O)[nH]1`: the Kd was > 4 mM (inactive). The same measure for `CN1CCN(C(=O)c2ccccc2C(=O)O)CC1`: > 4 mM (inactive). The same measure for `CC(C)=NNC(=O)C(=O)Nc1ccc(F)cc1`: > 4 mM (inactive). Regarding `Cc1ncc(C(=O)O)c(-c2ccccc2)n1`, the Kd was > 4 mM (inactive).

Turning to `CNC(=S)Nc1ccc(OC)cc1C`, the Kd is > 4 mM (inactive). As to `Cc1cccc(NC(=O)NC(N)=O)c1`, the Kd is > 4 mM (inactive).

With `Cc1cc2ncn(S(=O)(=O)N3CCOCC3)c2cc1C`, the Kd was > 4 mM (inactive).

In the case of `C[C@]12CCC3C(CC[C@]4(O)C[C@@H](O)CC[C@]34C=O)[C@@]1(O)CCC2C1=CC(=O)OC1` (stereo partly drawn), the Kd was > 4 mM (inactive). On to `O=C(O[C@@H]1Cc2c(O)cc(O)cc2O[C@@H]1c1cc(O)c(=O)c2c(O)c(O)cc([C@H]3Oc4cc(O)cc(O)c4C[C@H]3OC(=O)c3cc(O)c(O)c(O)c3)c2c1)c1cc(O)c(O)c(O)c1`, for which the Kd was > 4 mM (inactive).

As for `Cc1ccc(C(=O)Nc2c[nH]c(=O)[nH]c2=O)cc1`, the Kd is > 4 mM (inactive). For `O=C(Cc1c(F)cccc1Cl)Nc1cccnc1`, the Kd is > 4 mM (inactive). As for `O=C(O)/C=C/C=C/c1ccccc1`, the Kd is > 4 mM (inactive). Consider `Nc1ccc(S(=O)(=O)Nc2nccs2)cc1`, for which the Kd was > 4 mM (inactive).

Consider `NC(=O)CCn1cnc2ccccc21`, for which the Kd is > 4 mM (inactive). As for `CC(C)=NNC(=O)c1ccccc1`, the Kd was > 4 mM (inactive). In the case of `O=C(Nn1cnnc1)c1cc2c(s1)CCCCC2`, the Kd is > 4 mM (inactive). In the case of `Cc1nnc(NCCCO)[nH]c1=O`, the Kd is > 4 mM (inactive). With `O=C(O)/C=C/C(=O)Nc1ccccc1C(F)(F)F`, the Kd is > 4 mM (inactive). As to `Cc1noc(C)c1C(=O)N1CCN(c2ncccn2)CC1`, the Kd was > 4 mM (inactive).

In the case of `COc1ccc([C@@H]2CC(=O)c3c(O)cc(O)cc3O2)cc1O`, the Kd is > 4 mM (inactive).

Turning to `NC(=O)CSc1ccc2nnc(-c3cccs3)n2n1`, the Kd is > 4 mM (inactive). For `O=C(O)CS(=O)(=O)c1ccccc1`, the Kd is > 4 mM (inactive). Take `O=C(CNC(=O)c1cccs1)NC1=NCCS1`: the Kd was > 4 mM (inactive). The same measure for `COC(=O)Nc1ccc2ncn(C)c(=O)c2c1`: > 4 mM (inactive); for `O=C(O)CCC(=O)Nc1nccs1`: > 4 mM (inactive). With `COc1ccc(O)c(-c2cn[nH]c2-c2cccs2)c1`, the Kd was > 4 mM (inactive). Take `Nc1ccc(N2CCOCC2)c(Cl)c1`: the Kd was > 4 mM (inactive). The same measure for `O=C(NC(=S)NN1CCOCC1)c1cccs1`: > 4 mM (inactive); for `Cc1nc(-c2ccccc2)sc1CO`: > 4 mM (inactive). The result for `NS(=O)(=O)c1ccc2c3c(cccc13)C(=O)N2` reads > 4 mM (inactive); that for `C/C=C/COc1nc2c(c(=O)n(C)c(=O)n2C)n1C`, > 4 mM (inactive).

As for `O=S(=O)(Cc1ccccc1)N1CCCCCC1`, the Kd was > 4 mM (inactive). As for `Nc1nc(-c2ccccc2)cc(=O)[nH]1`, the Kd is > 4 mM (inactive). In the case of `O=C(O)C1=C[C@@H](O)[C@@H](O)[C@H](O)C1`, the Kd was > 4 mM (inactive). As to `Cc1cc2c(=O)n(C)c(SCC(N)=O)nc2s1`, the Kd is > 4 mM (inactive). On to `NC(=O)c1ccc(NC(=O)C2CC2)cc1`, for which the Kd is > 4 mM (inactive). The result for `c1cc(CNc2ccc3c(c2)OCCO3)ccn1` reads > 4 mM (inactive); that for `O=C(CC1CCCCC1)N1CCN(c2ccccn2)CC1`, > 4 mM (inactive). For `Cc1ccc(-c2c(C)n([O-])c(C)c(C)[n+]2=O)cc1`, the Kd is > 4 mM (inactive). The result for `O=c1c(-c2ccc(O)cc2)coc2cc(O)ccc12` reads > 4 mM (inactive); that for `O=C1NC(=O)C(Cc2cccs2)C(=O)N1`, > 4 mM (inactive). As for `O=c1cc(-c2ccccc2)oc2c(O)c(O)ccc12`, the Kd is > 4 mM (inactive).

Turning to `CC(=O)Nc1cccc(Cn2cccn2)c1`, the Kd was > 4 mM (inactive). Take `NCc1cccc(-n2cccc2)c1`: the Kd was > 4 mM (inactive). The result for `CC(C)c1nnc(N)s1` reads > 4 mM (inactive); that for `C[n+]1ccc(C(=O)[O-])cc1`, > 4 mM (inactive).

Regarding `CC(=O)O[C@@H]1CC2C(C)(C)C(=O)[C@@H]3O[C@@H]3[C@]2(C)C2CC[C@]3(C)C(=CC(=O)O[C@H]3c3ccoc3)[C@@]21C` (stereo partly drawn), the Kd was > 4 mM (inactive). On to `CC(=O)Nc1c(C#N)c(C(C)(C)C)cn1C`, for which the Kd was > 4 mM (inactive).

`CC1(C)O[C@H]2CC(=O)OC[C@]23[C@H]2CC[C@@]4(C)[C@H](c5ccoc5)OC(=O)[C@H]5O[C@]54[C@]2(C)C(=O)C[C@@H]13`: the Kd was > 4 mM (inactive). As for `COc1ccc(-c2cc(=O)c3c(OC)c(OC)c(OC)c(OC)c3o2)cc1OC`, the Kd was > 4 mM (inactive). Consider `NCc1ccc2c(c1)OCCCO2`, for which the Kd was > 4 mM (inactive).

With `CNC(=O)C(=O)Nc1c(C)cccc1C`, the Kd was > 4 mM (inactive). `CC12CCC(O)CC1CCC1C2[C@H](O)CC2(C)C(C3=CC(=O)OC3)CCC12O` (stereo partly drawn): the Kd was > 4 mM (inactive). As to `CN(C)c1ccc(NC(=O)CC(C(=O)O)N(C)C)cc1` (stereo not drawn), the Kd was > 4 mM (inactive). As to `CS(=O)(=O)Nc1ccccc1C(=O)c1ccccc1`, the Kd was > 4 mM (inactive).

On to `CC(=O)NCS(=O)(=O)c1ccc(C)cc1`, for which the Kd is > 4 mM (inactive).

For `O=S1(=O)CCC(NC(=S)Nc2ccccc2)C1` (stereo not drawn), the Kd was > 4 mM (inactive).

With `O=C(O)C1Cc2c([nH]c3ccccc23)CN1` (stereo not drawn), the Kd is > 4 mM (inactive).
